Assay results from the NIST ThermoML archive (doi:10.1021/je200073x).

Experiments:
[1] = 101.33 kPa, Liquid; for viscosity: Concentric cylinders viscometry; for electrical conductivity: Metler Toledo SevenEasy conductivity meter; for mass density: Vibrating tube method
[2] = molar heat capacity at constant pressure; settings: 101.33 kPa, Liquid, Small sample (50 mg) DSC

CCCCCCn1cc[n+](C)c1.F[P-](F)(F)(F)(F)F [1-hexyl-3-methylimidazolium hexafluorophosphate]
Settings | electrical conductivity [S/m] | mass density [kg/m3] | molar heat capacity at constant pressure [J/K/mol] | viscosity [mPa·s]
[1], 293.15 K | 0.0388 | 1296.7 | – | 693.1
[1], 298.15 K | 0.0543 | 1292.9 | – | 485.8
[1], 303.15 K | 0.074 | 1288.7 | – | 350.9
[1], 308.15 K | 0.0992 | 1285.1 | – | 255.4
[1], 313.15 K | 0.1301 | 1281 | – | 189.4
[1], 318.15 K | 0.168 | 1277 | – | 147.5
[1], 323.15 K | 0.212 | 1273 | – | 114.7
[1], 328.15 K | 0.264 | 1269.1 | – | 91.1
[1], 333.15 K | 0.322 | 1265.2 | – | 73.5
[1], 338.15 K | 0.391 | 1261.2 | – | 60
[1], 343.15 K | 0.465 | 1257 | – | 49.6
[2], 293.15 K | – | – | 421.53 | –
[2], 294.15 K | – | – | 422.15 | –
[2], 295.15 K | – | – | 422.78 | –
[2], 296.15 K | – | – | 423.09 | –
[2], 297.15 K | – | – | 423.4 | –
[2], 298.15 K | – | – | 424.02 | –
[2], 299.15 K | – | – | 424.34 | –
[2], 300.15 K | – | – | 424.96 | –
[2], 301.15 K | – | – | 425.27 | –
[2], 302.15 K | – | – | 426.21 | –
[2], 303.15 K | – | – | 426.83 | –
[2], 304.15 K | – | – | 427.15 | –
[2], 305.15 K | – | – | 427.46 | –
[2], 306.15 K | – | – | 428.08 | –
[2], 307.15 K | – | – | 428.71 | –
[2], 308.15 K | – | – | 429.33 | –
[2], 309.15 K | – | – | 429.96 | –
[2], 310.15 K | – | – | 430.58 | –
[2], 311.15 K | – | – | 431.21 | –
[2], 312.15 K | – | – | 431.52 | –
[2], 313.15 K | – | – | 432.14 | –
[2], 314.15 K | – | – | 432.77 | –
[2], 315.15 K | – | – | 433.39 | –
[2], 316.15 K | – | – | 434.02 | –
[2], 317.15 K | – | – | 434.64 | –
[2], 318.15 K | – | – | 434.95 | –
[2], 319.15 K | – | – | 435.58 | –
[2], 320.15 K | – | – | 436.2 | –
[2], 321.15 K | – | – | 436.83 | –
[2], 322.15 K | – | – | 437.45 | –
[2], 323.15 K | – | – | 437.76 | –
[2], 324.15 K | – | – | 438.7 | –
[2], 325.15 K | – | – | 439.32 | –
[2], 326.15 K | – | – | 439.95 | –
[2], 327.15 K | – | – | 440.89 | –
[2], 328.15 K | – | – | 441.82 | –
[2], 329.15 K | – | – | 442.45 | –
[2], 330.15 K | – | – | 443.07 | –
[2], 331.15 K | – | – | 444.01 | –
[2], 332.15 K | – | – | 444.63 | –
[2], 333.15 K | – | – | 445.26 | –
[2], 334.15 K | – | – | 445.88 | –
[2], 335.15 K | – | – | 446.51 | –
[2], 336.15 K | – | – | 447.44 | –
[2], 337.15 K | – | – | 448.07 | –
[2], 338.15 K | – | – | 448.69 | –
[2], 339.15 K | – | – | 449.32 | –
[2], 340.15 K | – | – | 450.25 | –
[2], 341.15 K | – | – | 450.56 | –
[2], 342.15 K | – | – | 451.5 | –
[2], 343.15 K | – | – | 452.44 | –
